Measured values from patent publication US9227982B2 (NOVARTIS AG, priority 2011, dated 2016).
Where two headings read alike, the source gives them in different places.

Columns and labels:
[1] = test system: Wnt ligand-induced signaling; test: Wnt-responsive Super-TOpFlash (STF) luciferase reporter gene assay in HEK293 cells; type: cell-based; conditions: 20% Wnt3A conditioned medium, read-out: HEK293STF IC50
Protocol: Cellular Reporter Gene Assay to Determine Compound Inhibition of Wnt Signaling Activity
Compound activity in inhibiting Wnt ligand-induced signaling was measured using a Wnt-responsive Super-TOpFlash (STF) luciferase reporter gene assay in HEK293 cells. On day 1 of the assay, cells were plated at a density of 8000 cells per well of 384-well plate in 25 μl medium containing 5% fetal bovine serum (FBS). On the second day, […] condition medium (CM) produced from mouse L cells was added to the cells to induce Wnt signaling, followed by addition of 5 μL of compounds each well in 10-point serial dilution. On the third day, the luciferase activity was measured by the Bright-Glo™ Luciferase Assay System following manufacture's protocol (Promega, E2620). The Inhibition was calculated as: (Maximum Wnt-induced signaling−Sample)/(Maximum Wnt-induced signaling−Background)*100. “Maximum Wnt-induced signaling” is the STF signal level induced by 20% Wnt3A CM without compound; and “Background” is the STF signal level without the addition of Wnt3A CM or compound.

[2] = biological target: human tankyrase 1 PARP catalytic domain, TNKS1P (Homo sapiens (Human), UniProt O95271); test: TNKS1 autoparsylation enzymatic assay (LC/MS detection of nicotinamide); type: biochemical; conditions: 20 nM enzyme, 250 μM β-NAD+, 60 min, read-out: TNKS1 AP IC50
human tankyrase 1 PARP catalytic domain, TNKS1P, sequence (O95271 1112-1317): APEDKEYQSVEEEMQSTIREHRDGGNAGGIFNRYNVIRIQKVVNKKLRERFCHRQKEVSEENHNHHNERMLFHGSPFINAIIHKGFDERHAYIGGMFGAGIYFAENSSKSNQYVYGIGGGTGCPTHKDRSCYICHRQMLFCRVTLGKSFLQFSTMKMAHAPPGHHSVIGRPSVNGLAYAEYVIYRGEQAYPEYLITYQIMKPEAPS
From the text: (§1) The human tankyrase 1 PARP catalytic domain, TNKS1P, was cloned into a pDONR221 vector using the Invitrogen Gateway Technology. This entry clone was then subcloned into the destination vector pDEST20 to obtain the N-terminal Glutathione S-transferase (GST)-tagged fusion protein. GST-TNKS1P was then expressed in Sf21 cells using the Invitrogen baculovirus expression system (Invitrogen-Bac-to-Bac® Baculovirus Expression System, Version D). The protein was purified by a GSTrap column (GE Healthcare). The N-terminal GST-tagged tankyrase 2 protein PARP domain, TNKS2P, was cloned, expressed, and purified in a similar manner. Human PARP1 (Cat. No. 4668-100-01) and activated DNA (Cat. No. 4671-096-06) were purchased from Trevigen, Inc. PARP2 (Cat. No. ALX-201-064-C020) was purchased from Alexis Biochemical.
The % Inhibition was calculated as: (Control−Sample)/(Control−Background)*100. “Control” is the average value of 8 wells without compound; and “Background” is the average of 8 wells mixed with 5× quenching solution measured prior to initiation of the reaction.

[3] = biological target: TNKS2 (GST-tagged tankyrase 2 PARP domain, TNKS2P) (Homo sapiens (Human), UniProt Q9H2K2); test: TNKS2 autoparsylation enzymatic assay (LC/MS detection of nicotinamide); type: biochemical; conditions: 20 nM enzyme, 250 μM β-NAD+, 60 min, read-out: TNKS2 AP IC50
TNKS2 (GST-tagged tankyrase 2 PARP domain, TNKS2P), sequence (Q9H2K2 959-1164): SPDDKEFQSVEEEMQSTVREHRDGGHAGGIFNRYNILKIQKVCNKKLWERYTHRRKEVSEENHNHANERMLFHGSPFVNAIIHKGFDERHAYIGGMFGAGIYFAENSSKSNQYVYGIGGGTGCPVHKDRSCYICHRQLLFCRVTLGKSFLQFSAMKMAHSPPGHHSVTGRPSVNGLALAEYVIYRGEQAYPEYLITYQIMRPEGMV
From the text: as §1, with “manner.” for “manner. Human PARP1 (Cat. No. 4668-100-01) and activated DNA (Cat. No. 4671-096-06) were purchased from Trevigen, Inc. PARP2 (Cat. No. ALX-201-064-C020) was purchased from Alexis Biochemical.”
The % Inhibition was calculated as: (Control−Sample)/(Control−Background)*100.

Molecule	IC50 ([1]; Homo sapiens) [µM]	IC50 [2] [µM]	IC50 [3] [nM]	IC50 [1] [µM]
O=c1[nH]c(CN(Cc2cccs2)S(=O)(=O)Cc2ccccc2)nc2c1COCC2 [Example 9, N-((4-Oxo-4,5,7,8-tetrahydro-3H-pyrano[4,3-d]pyrimidin-2-yl)methyl)-1-phenyl-N-(thiophen-2-ylmethyl)methanesulfonamide]	0.9 ± 0.23	–	–	–
O=c1[nH]c(CN(Cc2cccs2)S(=O)(=O)CCc2ccccc2)nc2c1COCC2 [Example 10, 2-Phenyl-ethanesulfonic acid (4-oxo-3,5,7,8-tetrahydro-4H-pyrano[4,3-d]pyrimidin-2-ylmethyl)-thiophen-2-ylmethyl-amide]	2.43 ± 0.94	–	–	–
CCN(Cc1nc2c(c(=O)[nH]1)COCC2)C(=O)CCc1ccccc1 [Example 15, N-Ethyl-N-((4-oxo-4,5,7,8-tetrahydro-3H-pyrano[4,3-d]pyrimidin-2-yl)methyl)-3-phenylpropanamide]	–	> 19	–	–
O=C(CCc1ccc(O)cc1)N(Cc1nc2c(c(=O)[nH]1)COCC2)Cc1cccs1 [Example 8, 3-(4-Hydroxy-phenyl)-N-(4-oxo-3,5,7,8-tetrahydro-4H-pyrano[4,3-d]pyrimidin-2-ylmethyl)-N-thiophen-2-ylmethyl-propionamide]	–	1.42 ± 0.04	–	–
CC(C)N(Cc1nc2c(c(=O)[nH]1)COCC2)C(=O)CCc1ccccc1 [Example 16, N-Isopropyl-N-((4-oxo-4,5,7,8-tetrahydro-3H-pyrano[4,3-d]pyrimidin-2-yl)methyl)-3-phenylpropanamide]	34.9	> 19	5390 ± 1630	–
O=C(CCc1cccc(F)c1)N(Cc1nc2c(c(=O)[nH]1)COCC2)Cc1cccs1 [Example 5, 3-(3-Fluorophenyl)-N-((4-oxo-4,5,7,8-tetrahydro-3H-pyrano[4,3-d]pyrimidin-2-yl)methyl)-N-(thiophen-2-ylmethyl)propanamide]	–	1.58 ± 0.014	–	–
CC(C)(C)C(=O)CN(Cc1nc2c(c(=O)[nH]1)COCC2)C(=O)CCc1ccccc1 [Example 17, N-(3,3-Dimethyl-2-oxobutyl)-N-((4-oxo-4,5,7,8-tetrahydro-3H-pyrano[4,3-d]pyrimidin-2-yl)methyl)-3-phenylpropanamide]	14.3 ± 1	17.1 ± 2	2990 ± 36	–
C[C@@H](c1ccccc1)N(Cc1nc2c(c(=O)[nH]1)COCC2)S(=O)(=O)Cc1ccccc1 [Example 24, (S)—N-((4-Oxo-4,5,7,8-tetrahydro-3H-pyrano[4,3-c]pyrimidin-2-yl)methyl)-1-phenyl-N-(1-phenylethyl)methanesulfonamide]	15.7 ± 0.8	18.1 ± 1.9	3120 ± 60	–
O=C(CCc1ccccc1)N(Cc1nc2c(c(=O)[nH]1)COCC2)CC1CCCC1 [Example 13, N-Cyclopentylmethyl-N-(4-oxo-3,5,7,8-tetrahydro-4H-pyrano[4,3-d]pyrimidin-2-ylmethyl)-3-phenyl-propionamide]	4.09 ± 1.29	4.78 ± 0.36	995 ± 94	–
O=C(CCc1ccncc1)N(Cc1nc2c(c(=O)[nH]1)COCC2)Cc1cccs1 [Example 11, N-((4-Oxo-4,5,7,8-tetrahydro-3H-pyrano[4,3-d]pyrimidin-2-yl)methyl)-3-(pyridin-4-yl)-N-(thiophen-2-ylmethyl)propanamide]	–	4.17 ± 0.26	–	–
O=C(CCc1ccccc1)N(Cc1nc2c(c(=O)[nH]1)COCC2)Cc1ccccc1F [Example 14, N-(2-Fluorobenzyl)-N-((4-oxo-4,5,7,8-tetrahydro-3H-pyrano[4,3-d]pyrimidin-2-yl)methyl)-3-phenylpropanamide]	4.09 ± 0.1	5.61 ± 0.24	1050 ± 50	–
O=C(CCc1ccccc1)N(CCO)Cc1nc2c(c(=O)[nH]1)COCC2 [Example 23, N-(2-Hydroxy-ethyl)-N-(4-oxo-3,5,7,8-tetrahydro-4H-pyrano[4,3-d]pyrimidin-2-ylmethyl)-3-phenyl-propionamide]	> 50	16.93 ± 0.02	2680 ± 77	–
O=C(CCc1ccccc1O)N(Cc1nc2c(c(=O)[nH]1)COCC2)Cc1cccs1 [Example 6, 3-(2-Hydroxy-phenyl)-N-(4-oxo 3,5,7,8-tetrahydro-4H-pyrano[4,3-d]pyrimidin-2-ylmethyl)-N-thiophen-2-ylmethyl-propionamide]	–	5.19 ± 0.227	–	–
O=C(CCc1ccccc1)N(Cc1nc2c(c(=O)[nH]1)COCC2)Cc1ccc(Cl)s1 [Example 21, N-((5-Chlorothiophen-2-yl)methyl)-N-((4-oxo-4,5,7,8-tetrahydro-3H-pyrano[4,3-d]pyrimidin-2-yl)methyl)-3-phenylpropanamide]	1.97 ± 0.56	1.61 ± 0.11	318 ± 9	–
O=C(CCc1ccccc1)N(Cc1nc2c(c(=O)[nH]1)COCC2)Cc1nccs1 [Example 19, N-((4-Oxo-4,5,7,8-tetrahydro-3H-pyrano[4,3-d]pyrimidin-2-yl)methyl)-3-phenyl-N-(thiazol-2-ylmethyl)propanamide]	8.56 ± 0.42	11.4 ± 0.4	2030 ± 40	–
O=C(CCc1c[nH]c2ccccc12)N(Cc1nc2c(c(=O)[nH]1)COCC2)Cc1cccs1 [Example 3, 3-(1H-Indol-3-yl)-N-(4-oxo-3,5,7,8-tetrahydro-4H-pyrano[4,3-d]pyrimidin-2-ylmethyl)-N-thiophen-2-ylmethyl-propionamide]	9.31 ± 3.9	–	–	–
O=C(CCc1ccccc1)N(Cc1nc2c(c(=O)[nH]1)COCC2)Cc1ncco1 [Example 20, N-(Oxazol-2-ylmethyl)-N-((4-oxo-4,5,7,8-tetrahydro-3H-pyrano[4,3-d]pyrimidin-2-yl)methyl)-3-phenylpropanamide]	14.3 ± 4	4.6 ± 0.2	1700 ± 30	–
C[C@H](c1ccccc1)N(Cc1nc2c(c(=O)[nH]1)COCC2)S(=O)(=O)Cc1ccccc1 [Example 25, (R)—N-((4-Oxo-4,5,7,8-tetrahydro-3H-pyrano[4,3-d]pyrimidin-2-yl)methyl)-1-phenyl-N-(1-phenylethyl)methanesulfonamide]	23.2 ± 7.9	9.08 ± 0.76	1850 ± 60	–
O=C(CCc1ccccc1F)N(Cc1ccc[nH]1)Cc1nc2c(c(=O)[nH]1)COCC2 [Example 26, N-((1H-Pyrrol-2-yl)methyl)-3-(2-fluorophenyl)-N-((4-oxo-4,5,7,8-tetrahydro-3H-pyrano[4,3-d]pyrimidin-2-yl)methyl)propanamide]	5 ± 0.72	1.17 ± 0.12	235 ± 24	–
O=C(CCc1ccccc1)N(Cc1nc2c(c(=O)[nH]1)COCC2)Cc1cncs1 [Example 22, N-((4-Oxo-4,5,7,8-tetrahydro-3H-pyrano[4,3-d]pyrimidin-2-yl)methyl)-3-phenyl-N-(thiazol-5-ylmethyl)propanamide]	18.2 ± 4.5	17.5 ± 1	3480 ± 710	–
N-((4-Oxo-4,5,7,8-tetrahydro-3H-pyrano[4,3-d]pyrimidin-2-yl)methyl)-3-(pyridin-4-yl)-N-(thiophen-2-ylmethyl)propanamide [Example 12]	–	14.6 ± 0.4	–	41 ± 1.6
